Starred links: 1 amine or outer side, 2 acyl side, 3 side chain; linkers in the order of their positions; H or OH if unused. Positions of bridges follow the written chain, without caps; N, C: chain ends. Non-standard residues stand in square brackets, D forms with d. Residues, ends and D or L forms follow the SMILES beside them. Chains are numbered I, II in the order given. Actinocin(9to1) = Cc1c2oc3c(C)ccc(C(=O)[*:1])c3nc-2c(C(=O)[*:2])c(N)c1=O; NMeV = CN[C@H](C(=O)O)C(C)C; Sar = CNCC(=O)O
Experiments:
[1] = test system: Jurkat P40 cells; experiment: time-resolved apoptosis detection with fluorescence-labeled annexin V by fluorescence microscopy; type: cell-based; conditions: 1 μg/ml
Method: 100,000 Jurkat P40 cells were simultaneously mixed with 1 μg/ml actinomycin D in the presence of 2 mM CaCl2 and fluorescence-labeled annexin V and incubated at 37° C. in 5% CO2 over a period of up to 24 h. After 4, 6, 8, 10 and 24 h, an aliquot was withdrawn, applied to a glass slide, fixed and analyzed by fluorescence microscopy. […] When the time elapsed was extended and the cell destruction more advanced, there would be a time when fluorescent cell debris would no longer be visible. It was shown that apoptosis in a solution can be followed in a time-resolved manner by recording images at different times. The reaction mix was prepared at the beginning, and subsequently, the increasing apoptosis was only analyzed by means of imaging methods.

[2] = marker which binds phosphatidylserine; binding depends on calcium cations; cited from earlier work

Cc1c2oc3c(C)ccc(C(=O)N[C@@H]4C(=O)N[C@H](C(C)C)C(=O)N5CCC[C@H]5C(=O)N(C)CC(=O)N(C)[C@@H](C(C)C)C(=O)O[C@@H]4C)c3nc-2c(C(=O)N[C@@H]2C(=O)N[C@H](C(C)C)C(=O)N3CCC[C@H]3C(=O)N(C)CC(=O)N(C)[C@@H](C(C)C)C(=O)O[C@@H]2C)c(N)c1=O [actinomycin D] (I: T[dV]P[Sar][NMeV] / II: T[dV]P[Sar][NMeV]; ester I:1-I:C, II:1-II:C; linker I:N-II:N via Actinocin(9to1))
degree of apoptosis (number of annexin V stained cells in the observation field) ([1]; 100,000 Jurkat P40 cells, 2 mM CaCl2, 37° C., 5% CO2, aliquots after 4, 6, 8, 10 and 24 h): the degree of apoptosis increases | secondary necrosis (cell fragments) ([1]; Jurkat P40 cells, after 24 h): smaller cell fragments become visible which indicate secondary necrosis

annexin V: marker which binds phosphatidylserine
Kd [2]: 0.5 nM

Source: patent US6949350B1, “Chemosensitivity determination using phosphatidylserine” (Evotec Analytical Systems GmbH, priority 1999, dated 2005)
